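Growth conditions: 96-well plates. Treatment: test compound, 48 hours, 5 concentrations. Analysis: linear interpolation between bracketing concentrations; unreached endpoints set to highest concentration. TGI: total growth inhibition.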
Columns and labels:
Assay in all cases: NCI anticancer screen, dose series, 48 h
OVCAR-8 ovarian = system: OVCAR-8 ovarian
HCC-2998 colon = system: HCC-2998 colon
T-47D breast = system: T-47D breast
KM12 colon = system: KM12 colon
SR leukemia = system: SR leukemia
OVCAR-4 ovarian = system: OVCAR-4 ovarian
K-562 leukemia = system: K-562 leukemia
OVCAR-5 ovarian = system: OVCAR-5 ovarian
PC-3 prostate = system: PC-3 prostate
MOLT-4 leukemia = system: MOLT-4 leukemia

SMILES | TGI (OVCAR-8 ovarian) [µM] | TGI (HCC-2998 colon) [µM] | TGI (T-47D breast) [µM] | TGI (KM12 colon) [µM] | TGI (SR leukemia) [µM] | TGI (OVCAR-4 ovarian) [µM] | TGI (K-562 leukemia) [µM] | TGI (OVCAR-5 ovarian) [µM] | TGI (PC-3 prostate) [µM] | TGI (MOLT-4 leukemia) [µM]
COc1cc([C@@H]2c3cc4c(cc3[C@@H](Nc3ccc(NC(=O)c5cc(NC(=O)c6cc([N+](=O)[O-])cn6C)cn5C)cc3)[C@H]3COC(=O)[C@H]23)OCO4)cc(OC)c1O | 89.8 | 26.4 | > 62.8 | 61.8 | > 100 | > 100 | 14.4 | 99.6 | – | –
N#CI1OC(C(F)(F)F)(C(F)(F)F)c2ccccc21 | 30.5 | 36.1 | 49.3 | 35.5 | – | 30.6 | > 100 | 36.6 | 30.1 | –
C/C(=N\NC(=O)N/N=C(\C)c1ccccn1)c1ccccn1 | > 100 | > 100 | > 100 | > 100 | > 100 | > 100 | – | > 100 | > 100 | > 100
CCOC(=O)C12C(=O)CCN1CCc1ccccc1C2C (stereo not drawn) | > 100 | – | > 100 | > 100 | > 100 | > 100 | > 100 | > 100 | > 100 | > 100
CC(C)(C)c1cc(C2NC(=O)NC2=O)cc(C(C)(C)C)c1O (stereo not drawn) | > 100 | – | > 100 | 48.4 | > 100 | > 100 | > 100 | > 100 | > 100 | > 100
CC(C)(CN1CCCCC1)C(=O)/C=C/c1c(Cl)cccc1Cl | 9.21 | 3.23 | 1.44 | 2.36 | > 100 | 4.98 | – | 2.97 | 3.46 | –
O=C1C=C(NCCc2cc(Br)c(O)c(Br)c2)C(=O)c2[nH]cnc21 | > 100 | > 100 | 88.8 | > 100 | > 100 | 94.9 | > 100 | 67.2 | > 100 | –
CCCN(CCC)c1c([N+](=O)[O-])cc(C(=O)N(C)C)cc1[N+](=O)[O-] | > 100 | > 100 | – | > 100 | – | 29.4 | > 100 | > 100 | – | > 100
COC(=O)C(N)CCCC(N)C(=O)NC(C)C(=O)NC(CCC(=O)NCCCNc1ccc([N+](=O)[O-])c2[nH]c3ccccc3c(=O)c12)C(N)=O (stereo not drawn) | 13.9 | 21.8 | 33.9 | 19.1 | – | 20.2 | 22.6 | 22.7 | 19.8 | –
O=C1CC(Cl)c2c(Cl)sc(Cl)c21 (stereo not drawn) | 3.32 | 5.54 | > 22 | 4.03 | – | 10.3 | > 100 | 34.7 | 5.64 | 2.37
COc1cnnc2c(C)c(-c3ccccc3)nn12 | > 100 | > 100 | > 100 | > 100 | – | > 100 | > 100 | > 100 | > 100 | > 100
O=C(CC(=O)Nc1ccccc1Cl)NNC(Sc1ccccc1)c1cc(N=Nc2ccc(Br)cc2)ccc1O (stereo not drawn) | 2.39 | > 10 | 9.57 | 5.04 | – | 5.98 | 6.63 | > 10 | 6.21 | 1.75
C/C(NC(=O)c1ccccc1)=C(/C(=O)c1ccccc1)[C@@H]1OC(C)(C)O[C@@H]1[C@H]1COC(C)(C)O1 | > 100 | 87.6 | – | > 100 | 38.5 | > 100 | 52.8 | > 100 | > 100 | 37.2
Cc1ccsc1/C=N/Nc1ccccn1 | > 100 | > 100 | > 100 | > 100 | – | > 100 | > 100 | > 100 | > 100 | 73.9
Cc1ccc(NC(=O)CC(=O)N2N=C(c3ccccc3)C(N=Nc3ccc(S(=O)(=O)CCOS(=O)(=O)O)cc3)C2=O)cc1 (stereo not drawn) | > 100 | > 100 | – | > 100 | > 100 | – | > 100 | > 100 | > 100 | > 100
O=C1C(CN2CCCC2)CCCC1CN1CCCC1 (stereo not drawn) | 10.5 | 34.3 | 6.96 | 39.8 | 5.66 | 20.3 | 2.27 | 13.2 | 32.3 | –
CC(C)=CCC/C(C)=C/CC/C(C)=C/CSc1ccc(Cl)cc1C(=O)O | 42.1 | 34.7 | – | 32.3 | – | 86.8 | 64.9 | 36.9 | 29.7 | 49.9
CC(C)(C)OC(=O)N1C/C=C\C(=O)C2(OCCO2)c2ccccc21 | 86.6 | – | 49.5 | > 100 | 77.9 | > 100 | 57.1 | > 100 | > 100 | 76.5
O=c1cc2cc(O)[nH]c(=O)c2c(O)[nH]1 | – | – | – | > 100 | > 100 | > 100 | > 100 | > 100 | – | > 100
CC(C)C[C@H](NC(=O)[C@H](CCc1ccccc1)NC(=O)c1ccc2ccccc2n1)B(O)O | 0.86 | 0.149 | – | 0.295 | – | 3.09 | > 100 | 0.617 | 1.19 | 4.76
Cc1ccc(Nc2ccc(Nc3ccc(C)cc3S(=O)(=O)O)c3c2C(=O)c2ccccc2C3=O)c(S(=O)(=O)O)c1 | > 100 | > 100 | – | > 100 | > 100 | > 100 | > 100 | – | – | > 100
CC(C)(Oc1ccc(C(=O)c2ccc(Cl)cc2)cc1Cl)C(=O)N1CCN(c2ccccc2)CC1 | > 100 | – | – | > 100 | > 100 | – | > 100 | > 100 | – | > 100
CC(=O)OC1C(O)C(C)OC(OC(=O)C2CCC3C(C2)OC2(CC(OC(=O)/C=C/c4ccccc4)C(C)CO2)C32CO2)C1OC1OC(C)C(O)C(O)C1O (stereo not drawn) | 0.823 | 0.0881 | – | 0.144 | – | 0.0706 | 2.29 | 1.24 | – | 5.05

— PubChem BioAssay (NCI)
